From US11298363B2, “Triazolobenzazepines as vasopressin V1a receptor antagonists” (RICHTER GEDEON NYRT., priority 2017, dated 2022)

The compounds below were run against mouse vasopressin V1a receptor (Mus musculus, UniProt Q62463) (assay: Mouse vasopressin V1a receptor binding assay). Settings: 1321N1 cell membranes; read-out: Ki (nM) on mV1a cell line.
Source text: Mouse Vasopressin V1a Receptor Binding Assay Cells and Radioligand
The immortalized 1321N1 cell line (B9/1321N1 clone) constitutively and stably expressing Mouse vasopressin V1a receptor vasopressin (8-L-Arginine), [Phenylalanyl-3,4,5-^3H(N)] labelled compound (Perkin Elmer Life and Analytical Sciences) as radioligand were used to determine the affinity of the prepared compounds.
Membrane-preparation: Membrane preparation of immortalized 1321N1 cells expressing the propagated mouse Vasopressin V1a receptor was made according to Jarvis's method (Jarvis et al., J Pharmacol Exp Ther […], 310:407-16). Cells were suspended in preparative buffer (50 mM Tris, 1 mM EDTA, 0.1 mM PMSF) and homogenized with glass homogenizing potter. To separate the raw membrane fraction two consecutive centrifugation procedures (40,000 g for 25 minutes at 4° C.) were executed, then the membrane was taken into the preparatory buffer during a final washing step, it was divided into aliquots which were stored at −80° C. until the time of measurement.
The protein content of the prepared membrane was determined according to Lowry's method using standard dilution line of bovine serum albumin (BSA) (Lowry et al., J Biol Chem 1951, 193:265-75).
To determine the final affinity value, the results of at least two independent experiments were taken into account.
Non-specific binding values were determined in the presence of an unlabeled 1.2×10^−6 M (Arg^8)-vasopressin. Samples were incubated in a total volume of 0.33 ml for 60 minutes at 27° C. Membrane-bound and free ligands were separated by filtration through a 0.5% polyethyleneimine-impregnated UniFilter® GF/B™ After drying the filter plates, 40 μl Microscint-20 (Packard) scintillation cocktail was added to the samples. Finally, radioactivity was measured using MicroBeta^2 Microplate Counter (Perkin Elmer).
The radioligand clamping ability of a substance is determined in at least two independent experiments. Specific radioligand binding can be defined as the difference between total and non-specific binding in the presence of a saturation amount of the unlabeled ligand or different concentrations of the substance to be tested. The results are given as a percentage of inhibition of the specific binding achieved in the presence of the substance to be tested.
The IC50 data (i.e. the concentration of the unknown substance which displaces 50% of specific bound radioligand) is calculated from the concentration-displacement curve using the sigmoid fitting mathematical method y=(A1−A2)/(1+(x/x0)p)+A2 with Origin 7.5. software (OriginLab Corporation, Northampton, USA). During fitting, the asymptotes are not fixed. The Ki values (inhibition constant) are given with Cheng-Prusoff equation Ki=IC50/[1+(L/KD)] wherein [L] is the radioligand concentration used in the experiment and [KD] is the affinity of the radioactively labelled ligand for the given receptor. The KD is determined beforehand using the Scatchard curve.

mouse vasopressin V1a receptor, sequence (Q62463 whole entry): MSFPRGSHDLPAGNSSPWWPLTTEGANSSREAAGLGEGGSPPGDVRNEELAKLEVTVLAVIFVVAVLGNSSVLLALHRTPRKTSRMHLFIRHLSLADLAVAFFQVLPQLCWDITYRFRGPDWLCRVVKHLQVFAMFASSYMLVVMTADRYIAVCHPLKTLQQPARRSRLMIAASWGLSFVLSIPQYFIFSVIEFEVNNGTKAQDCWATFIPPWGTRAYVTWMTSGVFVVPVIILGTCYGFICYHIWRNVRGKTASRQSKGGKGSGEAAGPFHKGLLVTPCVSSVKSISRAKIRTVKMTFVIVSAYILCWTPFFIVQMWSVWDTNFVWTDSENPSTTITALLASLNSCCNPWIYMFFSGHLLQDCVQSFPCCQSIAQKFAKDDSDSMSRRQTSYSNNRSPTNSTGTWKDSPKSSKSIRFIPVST

| Compound | Ki [nM] |
| --- | --- |
| N[C@@H]1Cc2cc(Cl)ccc2-n2c(nnc2[C@H]2CC[C@H](Oc3ccccn3)CC2)C1 [Example 8, (5R)-8-chloro-1-[trans-4-(pyridin-2-yloxy)cyclohexyl]-5,6-dihydro-4H-[1,2,4]triazolo[4,3-a][1]benzazepine-5-amine] | 161 |
| CC(=O)NC1Cc2cc(Cl)ccc2-n2c(nnc2[C@H]2CC[C@H](Oc3ccccn3)CC2)C1 (stereo partly drawn) [Example 9, N-{8-chloro-1-[trans-4-(pyridin-2-yloxy)cyclohexyl]-5,6-dihydro-4H-[1,2,4]triazolo[4,3-a][1]benzazepin-5-yl}acetamide] | 31 |
| O=C1Cc2cc(Cl)ccc2-n2c(nnc2[C@H]2CC[C@H](Oc3ccccn3)CC2)C1 [Example 54, 8-chloro-1-[trans-4-(pyrin-2-yloxy)cyclohexyl]-4H-[1,2,4]triazolo[4,3-a][1]benzazepin-5(6H)-one] | 43 |
| OC1Cc2cc(Cl)ccc2-n2c(nnc2[C@H]2CC[C@H](Oc3ccccn3)CC2)C1 (stereo partly drawn) [Example 55, 8-chloro-1-[trans-4-(pyridin-2-yloxy)cyclohexyl]-5,6-dihydro-4H-[1,2,4]triazolo[4,3-a][1]benzazepin-5-ol] | 21 |

These reach a lower Ki. Values come first.

| Ki [nM] | Compound |
| --- | --- |
| 13 | c1ccc(O[C@H]2CC[C@H](c3nnc4n3-c3ccccc3CC3(C4)OCCO3)CC2)nc1 [Example 63, 1′-[trans-4-(pyridin-2-yloxy)cyclohexyl]-4′H,6′H-spiro[1,3-dioxolane-2,5′-[1,2,4]triazolo[4,3-a][1]benzazepine]] |
| 12 | O[C@@H]1Cc2cc(Cl)ccc2-n2c(nnc2[C@H]2CC[C@H](Oc3ccccn3)CC2)C1 [Example 57, (5R)-8-chloro-1-[trans-4-(pyridin-2-yloxy)cyclohexyl]-5,6-dihydro-4H-[1,2,4]triazolo[4,3-a][1]benzazepin-5-ol] |
| 0.6 | Brc1ccc2c(c1)CC1(Cc3nnc([C@H]4CC[C@H](Oc5ccccn5)CC4)n3-2)OCCO1 [Example 62, 8′-bromo-1′-[trans-4-(pyridin-2-yloxy)cyclohexyl]-4′H,6′H-spiro[1,3-dioxolane-2,5′ [1,2,4]triazolo[4,3-a][1]benzazepine]] |
